≈ marks a conversion by molar mass, not a printed value. Where two headings read alike, the source gives them in different places.
Columns and labels:
C. xerosis DSM 20170 [1] = experiment: Bacteriostatic activity (MIC), microtiter broth turbidity; type: cell-based; conditions: Corynebacterium xerosis, read-out: MIC (minimal inhibitory concentration)
Source text: (§1) The bacteriostatic effects of the compounds of the present invention are compared with those of known anti-bacterial agents against human skin bacteria. Typical bacteria (Corynebacterium and Staphylococcus strains) isolated from the human axilla and commercially available strains are used.
(§2) The different axilla bacteria are isolated from the human axilla according to techniques known in the art, in particular according to standard microbiological practice. They are taxonomically identified by cell morphology, gram-reaction and biochemical tests included in the Api coryne test kit (BioMerieux, France). Strain Staphylococcus epidermidis Ax25 is identified by fatty acid methyl ester analysis (FAME; German type strain collection DSMZ, Germany) . […] The strains are maintained on Tryptic soy broth plates, this standard medium being supplemented with 5 g per Litre of Polyoxyethylene Sorbitan Monooleate (Tween™ 80). Plates are incubated at 36° C. for a period of 48 hours. The bacteria are then swabbed from the plates and suspended in 4 ml of Muller-Hinton broth supplemented with 100 mg of Tween™ 80 per Litre (MH-Tween) and incubated again at 36° C. for 16 hours. Following incubation the bacterial suspensions are diluted in MH-Tween to obtain a final cell density of 10^7 colony forming units per ml. These diluted suspensions of the different test organisms are distributed to different columns of a microtiter plate, 100 μl per well. The test compounds are dissolved in dimethylsulfoxide (DMSO) at various test concentrations and 2.5 μl of these different DMSO solutions are added to the different wells of the test plates. The plates are covered with plastic films and incubated for 24 h at 36° C. with shaking at 250 rpm. The turbidity developing in the microtiter platesi then examined after 24 h to determine microbial growth.

Escherichia coli DSM 682 = experiment: as above; type: cell-based; conditions: read-out: MIC (minimal inhibitory concentration)
Source text: as §1, §2

S. epidermidis Ax 25 [2] = experiment: as above; type: cell-based; conditions: Staphylococcus epidermidis, read-out: MIC (minimal inhibitory concentration)
Source text: as §1, §2

[3] = system: Staphylococcus aureus DSM 799; experiment: as above; type: cell-based; conditions: read-out: MIC (minimal inhibitory concentration)
Source text: as §1, §2

Corynebacterium Ax 7 [4] = experiment: as above; type: cell-based, Corynebacterium group G; conditions: read-out: MIC (minimal inhibitory concentration)
Source text: as §1, §2

Corynebacterium Ax 15 [5] = experiment: as above; type: cell-based, Corynebacterium jeikeium; conditions: read-out: MIC (minimal inhibitory concentration)
Source text: as §1, §2

C. xerosis DSM 20170 [6] = experiment: Bactericidal activity (MBC), 60 min contact; type: cell-based; conditions: Corynebacterium xerosis, DSM20170, 1 h, inoculum completely killed after 60 min incubation, read-out: MBC (minimal bactericidal concentration)
Source text: (§3) The different axilla bacteria are isolated from the human axilla according to techniques known in the art, in particular according to standard microbiological practice. They are taxonomically identified by cell morphology, gram-reaction and biochemical tests included in the Api coryne test kit (BioMerieux, France). Strain Staphylococcus epidermidis Ax25 is identified by fatty acid methyl ester analysis (FAME; German type strain collection DSMZ, Germany) . Escherichia coli DSM 682, Staphylococcus aureus DSM 799, and Corynebacterium xerosis DSM 20170 are obtained from the German-type strain collection. The strains are maintained on Tryptic soy broth plates, this standard medium being supplemented with 5 g per Litre of Polyoxyethylene Sorbitan Monooleate (TweenTM 80). Plates are incubated at 36° C. for a period of 48 hours. The bacteria are then swabbed from the plates and suspended in 4 ml of Muller-Hinton broth supplemented with 100 mg of TweenTM 80 per Litre (MH-Tween) and incubated again at 36° C. for 16 hours. Following incubation the bacterial suspensions are diluted in MH-Tween to obtain a final cell density of 10^7 colony forming units per ml. These diluted suspensions of the different test organisms are distributed to different columns of a microtiter plate, 100 μl per well. The test compounds are dissolved in dimethylsulfoxide (DMSO) at various test concentrations and 2.5 μl of these different DMSO solutions are added to the different wells of the test plates. The plates are covered with plastic films and incubated for 24 h at 36° C. with shaking at 250 rpm. The turbidity developing in the microtiter […] examined after 24 h to determine microbial growth. […] The bacteria are grown, harvested and diluted under the same conditions as described in the example above and added to microtiter plates (100 μl per well), each well containing 2.5 μl of the different DMSO solutions as described above. After 60 min incubation, 0.5 μl of the bacterial culture from each well (corresponding to 5×10^3 cfu in the control treatment) is transferred to a fresh microtiter plate which contained 100 μl per well of fresh medium. The plates are covered with plastic films and incubated for 24 h at 36° C. with shaking at 250 rpm. The turbidity developing in the microtiter plates is then examined after 24 h to determine microbial growth. The minimal concentration of test compounds which completely killed the bacterial inoculum is determined as the minimal bactericidal concentration (MBC).

S. epidermidis Ax 25 [7] = experiment: Bactericidal activity (MBC), 60 min contact; type: cell-based; conditions: Staphylococcus epidermidis, AX25, 1 h, inoculum completely killed after 60 min incubation, read-out: MBC (minimal bactericidal concentration)
Source text: as §3

Corynebacterium Ax 7 [8] = experiment: Bactericidal activity (MBC), 60 min contact; type: cell-based, Corynebacterium group G; conditions: AX7, 1 h, inoculum completely killed after 60 min incubation, read-out: MBC (minimal bactericidal concentration)
Source text: as §3

Corynebacterium Ax 15 [9] = experiment: Bactericidal activity (MBC), 60 min contact; type: cell-based, Corynebacterium jeikeium; conditions: AX15, 1 h, inoculum completely killed after 60 min incubation, read-out: MBC (minimal bactericidal concentration)
Source text: as §3

[10] = Staphylococcus aureus, DSM799, 24 h
[11] = DSM20170, C. xerosis DSM 20170, growth inhibited by at least 80%, 24 h at 36° C.
[12] = DSM682, Escherichia coli DSM 682, growth inhibited by at least 80%, 24 h at 36° C.
[13] = AX25, S. epidermidis Ax 25, growth inhibited by at least 80%, 24 h at 36° C.
[14] = DSM799, Staphylococcus aureus DSM 799, growth inhibited by at least 80%, 24 h at 36° C.
[15] = AX7, Corynebacterium Ax 7, growth inhibited by at least 80%, 24 h at 36° C.
[16] = AX15, Corynebacterium Ax 15, growth inhibited by at least 80%, 24 h at 36° C.

MIC (C. xerosis DSM 20170 [1]; [11]) [µg/mL] | MIC (Escherichia coli DSM 682; [12]) [µg/mL] | MIC (S. epidermidis Ax 25 [2]; [13]) [µg/mL] | MIC [3, 14] [µg/mL] | MIC (Corynebacterium Ax 7 [4]; [15]) [µg/mL] | MIC (Corynebacterium Ax 15 [5]; [16]) [µg/mL] | SMILES | MIC (C. xerosis DSM 20170 [1]; DSM20170, 24 h) [µg/mL] | MIC (Escherichia coli DSM 682; Escherichia coli, DSM682, 24 h) [µg/mL] | MIC (S. epidermidis Ax 25 [2]; AX25, 24 h) [µg/mL] | MIC [3, 10] [µg/mL] | MIC (Corynebacterium Ax 7 [4]; Corynebacterium, AX7, 24 h) [µg/mL] | MIC (Corynebacterium Ax 15 [5]; Corynebacterium, AX15, 24 h) [µg/mL] | MBC (C. xerosis DSM 20170 [6]) [µg/mL] | MBC (S. epidermidis Ax 25 [7]) [µg/mL] | MBC (Corynebacterium Ax 7 [8]) [µg/mL] | MBC (Corynebacterium Ax 15 [9]) [µg/mL]
 |  |  |  |  |  | CCCCCCCCCCCC(=O)OCC(O)CO (stereo not drawn) [C1, Dodecanoic acid 2,3-dihydroxy-propyl ester, reference compound] | 320 (≈ 1170 µM) | > 5000 | < 80 | 80 (≈ 292 µM) | 160 (≈ 583 µM) | 1250 (≈ 4560 µM) |  |  |  | 
 |  |  |  |  |  | CCCCC(CC)COCC(O)CO (stereo not drawn) [C2, 3-(2-Ethyl-hexyloxy)-propane-1,2-diol, reference compound] | 630 (≈ 3080 µM) | 630 (≈ 3080 µM) | 1250 (≈ 6120 µM) | 630 (≈ 3080 µM) | 1250 (≈ 6120 µM) | 1250 (≈ 6120 µM) |  |  |  | 
80 (≈ 360 µM) | > 10000 | 160 (≈ 720 µM) | 160 (≈ 720 µM) | 140 (≈ 630 µM) | 160 (≈ 720 µM) | CC(C)=CCCC(C)=CCCC(C)=CCO [C3, Farnesol, reference compound] |  |  |  |  |  |  |  |  |  | 
 |  |  |  |  |  | Oc1cc(Cl)ccc1Oc1ccc(Cl)cc1Cl [C4, Triclosan, reference compound] | 15 (≈ 51.8 µM) | 5 (≈ 17.3 µM) | 0.15 (≈ 0.518 µM) | 5 (≈ 17.3 µM) | 30 (≈ 104 µM) | 30 (≈ 104 µM) |  |  |  | 
313 (≈ 1180 µM) | 2500 (≈ 9460 µM) | 625 (≈ 2360 µM) | 625 (≈ 2360 µM) | 625 (≈ 2360 µM) | 1250 (≈ 4730 µM) | CC(COCC(=O)O)Cc1ccc(C(C)(C)C)cc1 (stereo not drawn) [compound 1, [3-(4-tert.-Butyl-phenyl)-2-methyl-propoxy]-acetic acid] |  |  |  |  |  |  | 2500 (≈ 9460 µM) | ≥ 5000 | 2500 (≈ 9460 µM) | ≥ 5000
884 (≈ 4700 µM) | 2500 (≈ 13300 µM) | 625 (≈ 3320 µM) | 625 (≈ 3320 µM) | 1250 (≈ 6640 µM) | 1250 (≈ 6640 µM) | CCCCC(CC)COCC(=O)O (stereo not drawn) [compound 4, (2-Ethyl-hexyloxy)-acetic acid] |  |  |  |  |  |  | ≥ 5000 | ≥ 5000 | 2500 (≈ 13300 µM) | ≥ 5000
80 (≈ 327 µM) | > 2500 | 160 (≈ 655 µM) | 160 (≈ 655 µM) | 160 (≈ 655 µM) | 310 (≈ 1270 µM) | CCCCCCC(CCCC)COCC(=O)O (stereo not drawn) [compound 5, (2-Butyl-octyloxy)-acetic acid] |  |  |  |  |  |  | > 2500 | > 2000 | 1250 (≈ 5120 µM) | > 2500
4 (≈ 13.3 µM) | > 2500 | 5 (≈ 16.6 µM) | 5 (≈ 16.6 µM) | 5 (≈ 16.6 µM) | 5 (≈ 16.6 µM) | CCCCCCCCC(CCCCCC)COCC(=O)O (stereo not drawn) [compound 6, (2-Hexyl-decyloxy)-acetic acid] |  |  |  |  |  |  | 40 (≈ 133 µM) | 20 (≈ 66.6 µM) | 20 (≈ 66.6 µM) | 40 (≈ 133 µM)
1250 (≈ 6180 µM) | 2500 (≈ 12400 µM) | 1250 (≈ 6180 µM) | 1250 (≈ 6180 µM) | 1250 (≈ 6180 µM) | 1250 (≈ 6180 µM) | CCCCC(CC)C(=O)OCC(=O)O (stereo not drawn) [compound 7, 2-Ethyl-hexanoic acid carboxymethyl ester] |  |  |  |  |  |  | > 2500 | > 2500 | > 2500 | > 2500
80 (≈ 310 µM) | 2500 (≈ 9680 µM) | 1250 (≈ 4840 µM) | 80 (≈ 310 µM) | 160 (≈ 619 µM) | 80 (≈ 310 µM) | CCCCCCC(CCCC)C(=O)OCC(=O)O (stereo not drawn) [compound 8, 2-Butyl-octanoic acid carboxymethyl ester] |  |  |  |  |  |  | 2500 (≈ 9680 µM) | 1250 (≈ 4840 µM) | 1250 (≈ 4840 µM) | 2500 (≈ 9680 µM)
7 (≈ 22.3 µM) | > 2500 | 10 (≈ 31.8 µM) | 5 (≈ 15.9 µM) | 5 (≈ 15.9 µM) | 5 (≈ 15.9 µM) | CCCCCCCCC(CCCCCC)C(=O)OCC(=O)O (stereo not drawn) [compound 9, 2-Hexyl-decanoic acid carboxymethyl ester] |  |  |  |  |  |  | 80 (≈ 254 µM) | 40 (≈ 127 µM) | 40 (≈ 127 µM) | 80 (≈ 254 µM)
630 (≈ 2450 µM) | 1250 (≈ 4860 µM) | 1250 (≈ 4860 µM) | 1250 (≈ 4860 µM) | 1250 (≈ 4860 µM) | 1250 (≈ 4860 µM) | CCCCCCC(CCCC)C(=O)NCC(=O)O (stereo not drawn) [compound 10, (2-Butyl-octanoylamino)-acetic acid] |  |  |  |  |  |  | 2500 (≈ 9710 µM) | 2500 (≈ 9710 µM) | 1250 (≈ 4860 µM) | > 2500
≤ 19 | ≥ 5000 | 39 (≈ 124 µM) | 55 (≈ 175 µM) | ≤ 19 | 78 (≈ 249 µM) | CCCCCCCCC(CCCCCC)C(=O)NCC(=O)O (stereo not drawn) [compound 11, (2-Hexyl-decanoylamino)-acetic acid] |  |  |  |  |  |  | 313 (≈ 998 µM) | ≥ 5000 | 156 (≈ 498 µM) | 313 (≈ 998 µM)

From US20070276045A1, “Anti-Bacterial Compounds” (priority 2004, published 2007)
